Source: US20210147482A1, “PEPTIDE FOR INHIBITING BONE RESORPTION” (NIBEC CO., LTD., priority 2017, published 2021)

Assays:
[1] = tested on: osteoclasts from mouse-derived bone marrow macrophages; test: Podosome belt formation in osteoclasts (confocal microscopy); assay type: cell-based; conditions: 20 ng/ml M-CSF, 100 ng/ml RANKL, 20 μg/ml HBD3-C15, 5 days; FIG. 3
Description: Thus, in order to determine whether or not the reduction of osteoclast differentiation by HBD3-C15 is affected by podosome belt formation in osteoclasts, mouse-derived bone marrow macrophages were differentiated on a cover glass. Mouse-bone-marrow-derived macrophages were treated with 20 ng/ml of M-CSF and 100 ng/ml of RANKL, or 20 ng/ml of M-CSF, 100 ng/ml of RANKL and 20 μg/ml of HBD3-C15, and cultured for 5 days. The cells were fixed with 4% paraformaldehyde, stained with Alexa-Fluor-488-conjugated-phalloidin, and washed and stained with Hoechst 33258. The degree of staining of cells was observed by confocal microscopy.

[2] = tested on: osteoblast cell line MC3T3-E1 (Subclone 4); test: Osteoblast differentiation by alkaline phosphate staining; assay type: cell-based; conditions: differentiation medium (50 μg/ml ascorbic acid, 10 mM β-glycerophosphate) + 20 μg/ml HBD3-C15, 6 days; FIG. 7
Description: In order to evaluate the effect of HBD3-C15 on differentiation of osteoblasts, which are bone formation cells, the osteoblast cell line MC3T3-E1 (Subclone 4) was used. The cells were prepared by culturing in alpha-MEM medium without ascorbic acid containing 10% fetal bovine serum, 50 unit/ml of penicillin, and 50 μg/ml of streptomycin at 37° C. and 100% humidity while continuously supplying 5% carbon dioxide.
MC3T3-E1 cells were seeded at a density of 25,000 cells/well into a 48-well plate, then treated with a differentiation medium alone supplemented with 50 μg/ml of ascorbic acid and 10 mM of β-glycerophosphate, or in combination with 20 μg/ml of HBD3-C15, and cultured for 6 days. Alkaline phosphate staining was performed to determine the differentiation of osteoblasts and images were obtained through a camera mounted on a microscope.

[3] = tested on: mouse-bone-marrow-derived macrophages; test: Osteoclast differentiation by TRAP staining; assay type: cell-based; conditions: 100 ng/ml RANKL + 0.2, 2, or 20 μg/ml HBD3-C15, 3 days
Description: In order to evaluate the effect of HBD3-C15, a peptide fragment derived from human beta-defensin-3 (HBD3) on the differentiation of osteoclasts, which are bone destruction cells, mouse-bone-marrow-derived macrophages were used. The bone marrow-derived macrophages that were used were prepared by isolating bone marrow cells from the long bone of mice and culturing the same at 100% humidity and 37° C. in an alpha MEM containing 10% fetal bovine serum, 50 unit/ml of penicillin and 50 μg/ml of streptomycin along with 20 ng/ml of M-CSF for 5 days, while continuously feeding 5% carbon dioxide.
Mouse-bone-marrow-derived macrophages were seeded at 20,000 cells/well on a 96-well plate, treated with 100 ng/ml of receptor activator of nuclear factor-kappaB ligand (RANKL) alone, or a combination of 100 ng/ml of RANKL and 0.2, 2, or 20 μg/ml of HBD3-C15, and cultured for 3 days. In order to determine the degree of differentiation of osteoclasts, tartrate-resistant acid phosphatase (TRAP) staining was performed, and cells with three or more nuclei having osteoclast activity were counted and statistically analyzed.

NFATc1 [4] = test: NFATc1 RNA expression by RT-PCR; assay type: cell-based, mouse; conditions: 20 ng/ml M-CSF, 100 ng/ml RANKL, 20 μg/ml HBD3-C15, 24 hours; FIG. 1D
Description: (§1) In addition, expression of c-fos and NFATc1, which are well-known key transcription factors for osteoclast differentiation, was determined at protein and RNA levels.
(§2) Mouse-bone-marrow-derived macrophages were treated with 20 ng/ml of M-CSF and 100 ng/ml of RANKL, or 20 ng/ml of M-CSF, 100 ng/ml of RANKL and 20 μg/ml of HBD3-C15 for 24 hours, RNA was extracted, and the quantified RNA and random primers were reacted at 70° C. for 5 minutes and reacted in the presence of a reverse transcriptase, reverse transcription buffer and dNTPs at 42° C. for 1 hour. The result was amplified by 35 cycles using the synthesized cDNA as a template and using c-Fos and NFATc1-specific oligos as primers in a polymerase chain reaction machine.

NFATc1 [5] = test: NFATc1 protein expression by immunoblotting; assay type: cell-based, mouse; conditions: treated with HBD3-C15 for 48 hours; FIG. 1D
Description: (§3) In addition, in order to determine changes of the protein expression of c-Fos and NFATc1, the proteins were extracted from mouse-bone-marrow-derived macrophages, treated with HBD3-C15 for 48 hours, and 40 μg of the protein was transferred to the PVDF membrane through an SDS-PAGE gel. Then, immunoblotting was performed using c-Fos and NFATc1-specific antibodies.

[6] = tested on: osteoclasts cultured from mouse-bone-marrow-derived macrophages on dentin discs; test: Bone resorption activity of osteoclasts on dentin discs; assay type: cell-based; conditions: 20 ng/ml M-CSF, 100 ng/ml RANKL, 20 μg/ml HBD3-C15, 6 days, FIG. 2
Description: The osteoclasts were cultured in mouse-bone-marrow-derived macrophages on dentin discs based on the fact that osteoclasts perform all functions thereof in environments enabling bone absorption. Mouse-bone-marrow-derived macrophages were treated with 20 ng/ml of M-CSF and 100 ng/ml of RANKL, or with 20 ng/ml of M-CSF, 100 ng/ml of RANKL and 20 μg/ml of HBD3-C15, and then cultured for 6 days. The bone resorption area and bone resorption depth were imaged by confocal microscopy and total bone resorption depth and bone resorption area were measured by LSM Image Browser software.

c-Fos [7] = test: c-Fos protein expression by immunoblotting; assay type: cell-based, mouse; conditions: treated with HBD3-C15 for 48 hours; FIG. 1D
Description: as §3

mature osteoclasts = test: Destruction of podosome belt of differentiated mature osteoclasts; assay type: cell-based, mouse; conditions: 20 μg/ml HBD3-C15 added on day 4 of differentiation, cultured 1 day; FIG. 4
Description: Thus, in order to determine whether or not HBD3-C15 can inhibit the activity of differentiated mature osteoclasts, mouse-bone-marrow-derived macrophages were treated with 20 ng/ml of M-CSF and 100 ng/ml of RANKL on a cover glass for 4 days to induce differentiation of osteoclasts. The osteoclasts were treated with 20 μg/ml of HBD3-C15 on day 4 of differentiation and cultured for 1 day. The cells were fixed with 4% paraformaldehyde, stained with Alexa-Fluor-488-conjugated phalloidin, washed and nuclei-stained with Hoechst 33258. The degree of staining of cells was observed by confocal microscopy.

c-Fos [8] = test: c-Fos RNA expression by RT-PCR; assay type: cell-based, mouse; conditions: 20 ng/ml M-CSF, 100 ng/ml RANKL, 20 μg/ml HBD3-C15, 24 hours; FIG. 1D
Description: as §1, §2

mouse skulls [9] = test: Calvarial implantation model, bone resorption by RANKL; assay type: in vivo; conditions: 20 μg RANKL and 200 μg HBD3-C15 in collagen sheet, day 7
Description: In order to determine the inhibition of bone destruction by HBD3-C15 in vivo, a calvarial implantation model, a typical bone loss model, was used.
20 μg of RANKL, a key cytokine that can destroy bones, was soaked in a collagen sheet and was transplanted alone into mouse skulls, or 20 μg of RANKL and 200 μg of HBD3-C15 were soaked in a collagen sheet and then transplanted into mouse skulls. The mice were sacrificed on day 7 of transplantation, and the degree of skull bone destruction was analyzed by scanning via micro-CT.
After micro-CT analysis, TRAP staining was performed to determine the number of osteoclasts in the skull.

mouse skulls [10] = test: Mouse skull resorption induced by A.a.LPS; assay type: in vivo; conditions: transplantation of HBD3-C15; FIG. 6
Description: In addition, lipopolysaccharide of Aggregatibacter actinomycetemcomitans (A.a.LPS), a bacterium known to cause aggressive periodontitis accompanied with rapid alveolar bone loss, induced resorption of mouse skulls, and whether such resorption can be inhibited by HBD3-C15 was determined

G-K-C-S-T-R-G-R-K-C-C-R-R-K-K [HBD3-C15]
podosome belt formation by RANKL [1]: no clear podosome belt
degree of differentiation of osteoblasts [2]: no difference in the degree of differentiation
number of TRAP positive cells increased due to RANKL ([3]; FIG. 1A): decreased in a concentration-dependent manner
number of cells with three or more nuclei having osteoclast activity ([3]; FIG. 1B): statistically significantly decreased
number of cells having ten or more nuclei ([3]; FIG. 1C): significantly decreased
expression of NFATc1 (RNA) increased by RANKL (NFATc1 [4]): reduced
NFATc1 protein expression attributable to RANKL (NFATc1 [5]): inhibited an increase
increase in bone resorption area attributable to RANKL [6]: significantly reduced
increase in bone resorption depth attributable to RANKL [6]: significantly reduced
c-Fos protein expression attributable to RANKL (c-Fos [7]): inhibited an increase
podosome belt of differentiated mature osteoclasts (mature osteoclasts): incomplete podosome belt
expression of c-Fos (RNA) increased by RANKL (c-Fos [8]): reduced
number of osteoclasts in the skull (TRAP staining) (mouse skulls [9]; FIG. 5C): significantly reduced
skull absorbed by RANKL (micro-CT) (mouse skulls [9]; FIGS. 5A and 5B): significantly reduced
number of osteoclasts (A.a.LPS model) (mouse skulls [10]): decreased
skull resorption by A.a.LPS (mouse skulls [10]): significantly reduced
